Test results taken from ChEMBL document CHEMBL3232996, “Synthesis and biological evaluation of novel (123)I-labeled 4-(4-iodophenyl)butanoyl-L-prolyl-(2S)-pyrrolidines for imaging prolyl oligopeptidase in vivo” (Eur J Med Chem, 2014).

Tests used:
Prolyl endopeptidase [1] = target: Prolyl endopeptidase (Sus scrofa, UniProt P23687); assay: Inhibition of porcine prolyl oligopeptidase using Z-Gly-Pro-AMC as substrate after 60 mins by double-reciprocal plot analysis; conditions: read-out: Ki(app)
Prolyl endopeptidase [2] = target: Prolyl endopeptidase (Mus musculus, UniProt Q9QUR6); assay: Competitive inhibition of mouse brain prolyl oligopeptidase; type: tissue-based
Sequence of Prolyl endopeptidase (Mus musculus, UniProt Q9QUR6) (Q9QUR6 whole entry): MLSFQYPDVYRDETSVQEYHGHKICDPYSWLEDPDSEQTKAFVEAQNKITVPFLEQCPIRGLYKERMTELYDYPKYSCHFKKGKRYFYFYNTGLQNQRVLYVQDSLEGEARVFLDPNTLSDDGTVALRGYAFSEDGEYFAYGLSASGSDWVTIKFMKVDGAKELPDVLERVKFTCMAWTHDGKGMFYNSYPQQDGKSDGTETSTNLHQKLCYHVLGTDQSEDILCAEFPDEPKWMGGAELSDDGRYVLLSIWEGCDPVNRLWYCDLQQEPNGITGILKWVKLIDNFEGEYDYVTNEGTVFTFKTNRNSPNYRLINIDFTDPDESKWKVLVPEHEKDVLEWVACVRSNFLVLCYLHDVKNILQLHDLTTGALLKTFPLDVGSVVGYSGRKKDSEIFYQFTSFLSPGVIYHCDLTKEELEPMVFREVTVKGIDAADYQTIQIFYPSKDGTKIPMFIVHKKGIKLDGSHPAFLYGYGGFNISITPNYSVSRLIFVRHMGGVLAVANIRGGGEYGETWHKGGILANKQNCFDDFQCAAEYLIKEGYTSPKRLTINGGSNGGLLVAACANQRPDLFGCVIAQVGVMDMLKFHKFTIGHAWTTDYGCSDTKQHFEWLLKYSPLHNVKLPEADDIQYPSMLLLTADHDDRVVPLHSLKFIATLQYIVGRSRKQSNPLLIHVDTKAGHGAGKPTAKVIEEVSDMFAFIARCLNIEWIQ

Sequence of Prolyl endopeptidase (Sus scrofa, UniProt P23687) (P23687 whole entry): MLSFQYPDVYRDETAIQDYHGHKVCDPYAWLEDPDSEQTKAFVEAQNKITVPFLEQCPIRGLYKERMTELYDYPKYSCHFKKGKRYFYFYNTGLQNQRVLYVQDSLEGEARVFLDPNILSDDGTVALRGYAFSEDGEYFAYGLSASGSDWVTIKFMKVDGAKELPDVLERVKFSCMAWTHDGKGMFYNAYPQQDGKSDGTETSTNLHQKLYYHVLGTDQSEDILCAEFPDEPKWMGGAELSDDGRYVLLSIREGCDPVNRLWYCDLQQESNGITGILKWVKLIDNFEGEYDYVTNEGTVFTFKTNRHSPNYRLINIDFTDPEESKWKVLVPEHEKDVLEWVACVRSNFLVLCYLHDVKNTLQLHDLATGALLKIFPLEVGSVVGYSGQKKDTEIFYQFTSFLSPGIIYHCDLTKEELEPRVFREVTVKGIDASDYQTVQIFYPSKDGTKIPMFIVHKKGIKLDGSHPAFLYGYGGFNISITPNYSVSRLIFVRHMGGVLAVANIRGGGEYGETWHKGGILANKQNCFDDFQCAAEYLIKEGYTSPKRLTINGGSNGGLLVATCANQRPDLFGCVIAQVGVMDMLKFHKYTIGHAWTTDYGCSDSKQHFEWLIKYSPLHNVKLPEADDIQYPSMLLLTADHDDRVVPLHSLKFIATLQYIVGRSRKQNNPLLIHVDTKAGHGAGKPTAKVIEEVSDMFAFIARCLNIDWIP

| Ki (Prolyl endopeptidase [1]) [nM] | IC50 (Prolyl endopeptidase [2]) [nM] | Structure (SMILES) |
| --- | --- | --- |
| 4.2 | – | N#C[C@@H]1CCCN1C(=O)[C@@H]1CCCN1C(=O)CCCc1ccc(I)cc1 |
| 22 | – | O=C([C@@H]1CCCN1C(=O)CCCc1ccc(I)cc1)N1CCCC1 |
| – | 3.1 | [11CH3]Nc1ccc(CCCC(=O)N2CCC[C@H]2C(=O)N2CCCC2)cc1 |
